Test results: publication PMC7558535, “In Vitro Metabolism of DWP16001, a Novel Sodium-Glucose Cotransporter 2 Inhibitor, in Human and Animal Hepatocytes” (Pharmaceutics, 2020)

How the values were obtained:
mouse hepatocytes = assay: Metabolic stability in mouse hepatocytes; type: in vitro ADME
Method: (§1) To evaluate the metabolic stability of DWP16001 in human, dog, monkey, mouse, and rat hepatocytes, pooled cryopreserved hepatocytes were carefully thawed in recovery medium and resuspended in incubation medium (Krebs–Henseleit buffer for mouse, rat, and human; William’s E media for dog and monkey) to 0.5 × 10^6 cells/mL for mouse, 0.67 × 10^6 cells/mL for rat, and 1.0 × 10^6 cells/mL for dog, monkey, and human in accordance with the manufacturer’s protocols. Then, 60-μL aliquots of these hepatocyte suspensions and an equal volume of 2 μM DWP16001 in incubation medium were mixed in 96-well plates and incubated in triplicate for 0, 30, 60, 90, 120, 180, or 240 min in a CO2 incubator at 37 °C. Reactions were stopped by addition of 120 µL of ice-cold acetonitrile to each well and the cell suspension was sonicated for 5 min at 4 °C, followed by centrifugation at 15,000× g for 10 min at 4 °C after 5 min of sonication. 80-µL aliquots of the supernatants were then vortex-mixed with 20 μL of ice-cold ketoconazole (an internal standard) in acetonitrile and analyzed by LC–tandem mass spectrometry (LC-MS/MS). The peak area ratios of DWP16001 versus internal standard at each sampling point were used for the subsequent calculation. Elimination parameters, including half-life (t1/2), intrinsic clearance (Clint), and hepatic clearance (Clhep) of DWP16001 in mouse, rat, dog, monkey, and human were calculated by the following equations [19]. (1) t1/2min=ln2/−k elimination slope (2) ClintmL/min/kg=ln2/t1/2×mL incubation/hepatocytes 10^6 cells×B×10^6 cells/g liver×A g liver/kg BW (3) ClhepmL/min/kg=Qh×Clint/Qh+Clint (4) Hepatic extraction ratio = Clhep/Qh
(§2) Here, A has values of 87.5, 40, 32, 32, and 25.7; B has values of 135, 117, 215, 120, and 139; Qh (representing hepatic blood flow) has values of 90, 55.2, 30.9, 43.4, and 20.7 mL/min/kg, for mouse, rat, dog, monkey, and human, respectively. Hepatic extraction ratio values of ≤ 0.25, 0.25–0.75, and ≥ 0.75 were regarded as low, moderate, and high, respectively.

[1] = Metabolic stability in mouse hepatocytes; type: in vitro ADME; conditions: pooled cryopreserved hepatocytes, mouse hepatocytes
Method: as §1, §2

SGLT2 = test system: SGLT2; set-up: method as in PMID 32183468; conditions: read-out: IC50 (SGLT2 inhibition); cited from earlier work
CYP3A4 = target: T1, CYP3A4 (Homo sapiens, UniProt P08684); assay: Enzyme kinetics of metabolite formation in cDNA-expressed CYP3A4 supersomes; type: in vitro ADME
T1 construct: purchased Corning Life Sciences
Method: To calculate the enzyme kinetic parameters for the M1 and M2 formation from DWP16001, DWP16001 (final concentrations, 1–200 μM) was incubated with NADPH-generating system, pooled human liver microsomes (0.25 mg/mL), or human cDNA-expressed CYP3A4 or CYP2C19 supersomes (10 pmol) at 37 °C for 30 min in triplicate. Reactions were stopped by addition of 400 μL of ice-cold ketoconazole (200 ng/mL) in acetonitrile. Following vortex-mixing and centrifugation (15,000× g, 8 min, 4 °C), 75 μL aliquots of the supernatant were diluted with 75 µL of 30% acetonitrile; 5 μL aliquots were injected into an LC−MS/MS system.
Apparent kinetic parameters (Km, Vmax and n) for the formation of M1, M2, and M3 from DWP16001 by human liver microsomes, CYP3A4, or CYP2C19 were calculated as follows: the unweighted formation rates of M1, M2, and M3 over a range of DWP16001 concentrations were fitted to the Hill equation model [V = Vmax × S^n/(Km^n + S^n)] or the single enzyme model [V = Vmax × S/(Km + S)] using Enzyme Kinetics software (version 1.1 SPSS Inc., Chicago, IL, USA). In the above equations, V means the reaction velocity of the formation of M1, M2, and M3 at given concentration [S] of DWP16001, Vmax means the maximum reaction velocity, n means the Hill constant, and Km means the DWP16001 concentration at which the reaction velocity is 50% of Vmax.

CYP2C19 = target: T2, CYP2C19 (Homo sapiens, UniProt P33261); assay: CYP screening, recombinant CYP2C19; type: in vitro ADME
T2 construct: purchased Corning Life Sciences
Method: DWP16001, M1, or M2 was incubated with 11 human cDNA-expressed CYP enzymes (1A1, 1A2, 2A6, 2B6, 2C8, 2C9, 2C19, 2D6, 2E1, 3A4, and 3A5) to identify the CYP enzymes involved in the metabolism of DWP16001. Reaction mixtures of 95 µL containing DWP16001 (final concentration: 5 µM), M1 or M2 (final concentration: 10 µM), and CYPs (final amount: 10 pmol) were prepared in 0.1 M potassium phosphate buffer (pH 7.4). The reaction was started by adding 5 µL of NADPH-generating system; the mixtures were incubated for 30 min at 37 °C in triplicate. Reactions were stopped by the addition of 400 µL of ice-cold ketoconazole (internal standard, 200 ng/mL) in ice-cold acetonitrile. Samples were centrifuged at 15,000× g for 8 min at 4 °C. Seventy-five microliter aliquots of the supernatants were diluted with 75 µL of deionized water and analyzed using an LC–MS/MS system.

T1 sequence (P08684 whole entry): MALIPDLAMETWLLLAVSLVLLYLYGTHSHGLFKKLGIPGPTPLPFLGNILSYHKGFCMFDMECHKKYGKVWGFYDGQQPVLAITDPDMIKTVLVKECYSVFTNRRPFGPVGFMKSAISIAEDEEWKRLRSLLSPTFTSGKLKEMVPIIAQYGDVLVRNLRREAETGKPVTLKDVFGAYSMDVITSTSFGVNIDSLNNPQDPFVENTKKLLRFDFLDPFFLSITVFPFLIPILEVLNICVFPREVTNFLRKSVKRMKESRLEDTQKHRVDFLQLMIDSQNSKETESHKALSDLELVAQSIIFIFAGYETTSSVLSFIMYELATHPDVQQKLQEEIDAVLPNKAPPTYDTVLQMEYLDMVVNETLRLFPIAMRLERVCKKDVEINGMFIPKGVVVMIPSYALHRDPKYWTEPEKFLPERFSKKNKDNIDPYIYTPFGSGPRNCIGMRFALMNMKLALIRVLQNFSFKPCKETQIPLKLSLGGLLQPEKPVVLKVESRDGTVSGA
T2 sequence (P33261 whole entry): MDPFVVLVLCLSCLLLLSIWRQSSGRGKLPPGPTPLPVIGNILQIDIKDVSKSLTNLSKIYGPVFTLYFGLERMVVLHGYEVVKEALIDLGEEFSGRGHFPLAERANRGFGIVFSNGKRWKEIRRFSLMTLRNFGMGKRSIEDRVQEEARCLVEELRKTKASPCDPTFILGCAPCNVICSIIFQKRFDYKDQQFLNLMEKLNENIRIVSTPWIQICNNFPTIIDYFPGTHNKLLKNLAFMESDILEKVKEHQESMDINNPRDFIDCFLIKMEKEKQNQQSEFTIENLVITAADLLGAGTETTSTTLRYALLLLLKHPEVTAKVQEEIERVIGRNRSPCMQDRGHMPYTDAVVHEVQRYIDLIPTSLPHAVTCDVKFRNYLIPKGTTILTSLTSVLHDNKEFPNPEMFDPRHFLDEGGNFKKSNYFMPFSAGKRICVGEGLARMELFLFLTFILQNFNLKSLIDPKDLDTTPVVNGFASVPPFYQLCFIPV

OC[C@H]1O[C@@H](c2cc(Cc3ccc(C4CC4)cc3)c(Cl)c3c2CCO3)[C@H](O)[C@@H](O)[C@@H]1O [DWP16001, (2S,3R,4R,5S,6R)-2-(7-chloro-6-(4-cyclopropylbenzyl)-2,3-dihydrobenzofuran-4-yl)-6-(hydroxymethyl)tetrahydro-2H-pyran-3,4,5-triol]
Hepatic extraction ratio class (mouse hepatocytes; mouse): moderate (0.25–0.75)
Hepatic extraction ratio (mouse hepatocytes; mouse hepatocytes): 0.41
Clhep (mouse hepatocytes; mouse hepatocytes, well-stirred model): 36.5 mL/min/kg
CLint scaled at 1 μM [1]: 61.4 mL/min/kg
half-life at 1 μM ([1]; 37 °C, 0-240 min): 8.88 h
IC50 (SGLT2): 0.8 ± 0.3 nM
M3 formation kinetic model (CYP3A4): single enzyme kinetics
M1 Formation Mode (CYP3A4; kinetic model fitted): Hill
M2 Formation Mode (CYP3A4; kinetic model fitted): Hill
Substrate of CYP2C19 (CYP2C19): substrate
